Assay [1] concerns cell lines that overexpress Pgp. Conditions: Pgp overexpressing cell lines; cited from earlier work.
Assay [2] concerns doxorubicin- and paclitaxel-resistant Pgp-expressing tumor, Mam17/ADR. Particulars: cited from earlier work.
The conditions of assay [3]: cited from earlier work.
The test system of assay [4] is cell lines that overexpress MRP7. Conditions: MRP7 overexpressing cell lines; cited from earlier work.
In a further assay the test system is HeLa cells. Description: Cell cycle distribution by flow cytometry. Particulars: 18 h; 125 nM AF, 200 nM AI, 35 nM AJ.
Assay [5] has as its system isogenic HeLa-derived cell line that expresses the βIII isotype of tubulin. Conditions: cited from earlier work.

The values below come from patent US9340572B2, “Taccalonolide microtubule stabilizers” (THE BOARD OF REGENTS OF THE UNIVERSITY OF TEXAS SYSTEM, priority 2011, dated 2016).

Regarding `CC(=O)O[C@@H]1[C@H]2[C@@H]3[C@@H](O)C(=O)[C@H]4C[C@@H]5O[C@@H]5[C@H](OC(C)=O)[C@]4(C)[C@H]3C[C@H](OC(C)=O)[C@]2(C)[C@@H]2[C@@H]1[C@]1(C)C(=C[C@H]2C)OC(=O)[C@@]1(C)O` [Taccalonolide E], the efficacy in vitro entry in assay [1] and in assay [4] was “effective” throughout. In addition, the activity in vivo entry in assay [2] is on record as “highly active”. Moreover, the “in vivo antitumor activity” value in assay [3] is on record as “have in vivo antitumor activity”.

In the case of `CC(=O)O[C@H]1C(=O)[C@@]2(C)[C@H]([C@H](OC(=O)c3ccccc3)[C@]3(O)C[C@H](OC(=O)[C@H](O)[C@@H](NC(=O)c4ccccc4)c4ccccc4)C(C)=C1C3(C)C)[C@]1(OC(C)=O)CO[C@@H]1C[C@@H]2O` [paclitaxel], in the assay with HeLa cells, the “effect on cell cycle distribution / mitotic progression” value is listed as “mitotic arrest”. In assay [5], the “sensitivity of βIII-tubulin-overexpressing cell line compared with parental HeLa cells” value is “less sensitive”.
